In PubChem BioAssay (NCI):
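How tested: cells in 96-well plates exposed to compound for 48 hours at five concentrations. TGI: concentration producing complete growth inhibition.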

What was measured:
Experiment in all cases: NCI anticancer screen, dose series, 48 h
SK-MEL-28 melanoma = test system: SK-MEL-28 melanoma
A498 renal = test system: A498 renal
EKVX NSCLC = test system: EKVX NSCLC
KM12 colon = test system: KM12 colon
HT29 colon = test system: HT29 colon
SK-MEL-5 melanoma = test system: SK-MEL-5 melanoma
OVCAR-8 ovarian = test system: OVCAR-8 ovarian
OVCAR-5 ovarian = test system: OVCAR-5 ovarian
SN12C renal = test system: SN12C renal
BT-549 breast = test system: BT-549 breast
OVCAR-3 ovarian = test system: OVCAR-3 ovarian

Row | SMILES | TGI (SK-MEL-28 melanoma) [µM] | TGI (A498 renal) [µM] | TGI (EKVX NSCLC) [µM] | TGI (KM12 colon) [µM] | TGI (HT29 colon) [µM] | TGI (SK-MEL-5 melanoma) [µM] | TGI (OVCAR-8 ovarian) [µM] | TGI (OVCAR-5 ovarian) [µM] | TGI (SN12C renal) [µM] | TGI (BT-549 breast) [µM] | TGI (OVCAR-3 ovarian) [µM]
1 | CC(C)=CCc1c(O)cc2oc(-c3ccc(O)cc3O)cc(=O)c2c1O | 87.8 | > 100 | > 100 | 50.8 | 49.8 | 38.7 | > 100 | 81.3 | > 69.1 | > 76.2 | 51.5
2 | CCOC(=O)c1c(-c2ccccc2)c(OC)cn1C | > 10 | > 10 | > 10 | > 10 | > 10 | > 10 | > 10 | > 10 | > 10 | > 10 | > 10
3 | CC(=O)/C(=N\Nc1ccc(Cl)cc1)C(C)=Nc1ccc(C)cc1 | > 100 | 85.2 | > 100 | > 100 | 61.3 | 38.8 | > 100 | > 100 | > 100 | > 100 | 84.5
4 | CC(=O)Oc1ccn2nc(C)c(Br)c2c1 | > 100 | > 100 | > 100 | > 100 | > 100 | > 100 | > 100 | > 100 | > 100 | > 100 | > 100
5 | CNC(=S)N1CCN(C(C)=O)C1=S | > 100 | > 100 | 91.9 | > 100 | > 100 | > 100 | > 100 | > 100 | > 100 | 51.7 | > 100
6 | C=C1[C@@H]2CCC3[C@]4(C)C(CC[C@@]5(C)C(=O)O[C@H](O)[C@@H]45)[C@H](O)[C@]3(C2)[C@H]1OC1OC(CO)C(O)C(O)C1O (stereo partly drawn) | > 50 | > 50 | > 50 | > 50 | > 50 | > 50 | > 50 | > 50 | > 50 | > 50 | > 50
7 | Cc1cc(-c2ccccc2)nc2oc(=O)n(C)c12 | > 100 | > 100 | > 100 | > 100 | > 100 | > 100 | > 100 | > 100 | > 100 | > 100 | > 100
8 | CC1=NN2C(=N)/C(=C/c3ccc(F)cc3)C(=O)N=C2S1 | > 100 | > 100 | > 100 | > 100 | > 100 | > 100 | > 100 | > 100 | > 100 | > 100 | > 100
9 | COc1ccc([C@]23CCC4(OCC(C)(C)CO4)[C@H]4CON(O[C@H](O[C@@H]5CCCCC5C(C)(C)c5ccccc5)C2)[C@@H]43)cc1OC (stereo partly drawn) | > 100 | > 100 | > 100 | > 100 | > 100 | 45.4 | > 100 | > 100 | > 100 | > 100 | > 100
10 | C[C@H]1[C@H](C)CC[C@]2(C(=O)OC3OC(CO)C(O)C(O)C3O)CC[C@]3(C)C(=CC[C@@H]4[C@@]5(C)C[C@@H](O)[C@@H]6OC(=O)c7cc(O)c(O)c(O)c7-c7c(cc(O)c(O)c7O)C(=O)OC[C@@]6(CO)[C@@H]5CC[C@]43C)[C@H]12 (stereo partly drawn) | > 100 | > 100 | > 100 | > 100 | > 57.9 | > 100 | > 100 | > 100 | > 100 | > 100 | > 91.4
11 | CC1=C(C)SC(=C2Sc3c(n(C)c(=O)n(C)c3=O)S2)S1 | > 100 | 79.4 | > 100 | > 100 | > 100 | > 100 | 64.5 | > 100 | > 100 | > 100 | > 100
12 | NC(=O)C1CCN(Cc2c(Cl)c(Cl)c(CN3CCC(C(N)=O)CC3)c(Cl)c2Cl)CC1 | > 100 | 90.6 | > 100 | > 100 | > 100 | > 100 | > 100 | > 100 | > 100 | > 100 | > 100
13 | CSc1nc(Cl)c2c(n1)Sc1nc3ccccc3n1C2O (stereo not drawn) | > 100 | > 100 | > 100 | > 21.2 | 25.4 | > 100 | > 29.5 | > 45 | > 100 | > 84.4 | > 26.5
14 | NC(=O)NN=C1Cc2ccccc2C1 | > 100 | > 100 | > 100 | > 100 | > 100 | > 100 | > 100 | > 100 | > 100 | > 100 | > 100
15 | CSc1ccc(/C=C2\N=C(c3ccccc3)N(c3nc4cc(Cl)c(F)cc4s3)C2=O)cc1 | > 100 | > 100 | > 100 | > 100 | > 100 | > 100 | 51.7 | > 100 | > 100 | > 100 | 60.1
16 | CN1c2ccccc2C2=C(c3ccccc3)CC[C@@H](C(=O)N3C4CC5CC[C@@]4(CS3(=O)=O)C5(C)C)[C@@H]21 (stereo partly drawn) | > 100 | > 100 | > 100 | > 100 | > 100 | > 100 | > 100 | > 100 | > 100 | > 100 | > 100
17 | CCN(CC)C(=S)N/N=C(/c1ccccc1)c1ccccn1 | > 79.7 | 2.38 | > 56.7 | 19.6 | > 40.1 | 4.83 | 11.3 | 22.9 | 1.35 | > 100 | 32.5
18 | O=C([C@H](O)[C@@H](O)c1cccc(Cl)c1)C12CC3CC(CC(C3)C1)C2 | 12.6 | 5.46 | 4.38 | 6.01 | 6.17 | 14.8 | 4.69 | 8.79 | 3.95 | 3.74 | 4.37
19 | CC/C=N\N1C(N)=C(C#N)C(C#N)(C#N)C1CC (stereo not drawn) | > 100 | > 100 | > 100 | > 100 | 86.4 | > 100 | > 100 | > 100 | > 100 | > 100 | > 100
20 | CC1(C)C=C(/C=C2/N(S(=O)(=O)C(F)(F)F)C(/C=C3/N(S(=O)(=O)C(F)(F)F)C(C)(C#N)CC3(C)C)=CC2(C)C)N=C1/C=C1/CC(C)(C)C(=O)N1 (stereo not drawn) | > 100 | > 100 | 81.2 | > 100 | > 100 | 71.6 | > 100 | > 100 | > 100 | > 100 | > 100
21 | CCC1(CC)C(=O)N(C(=O)c2cc(OC)c(OC)c(OC)c2)N(C(=O)c2cc(OC)c(OC)c(OC)c2)C1=O | > 50 | > 50 | > 50 | > 50 | > 50 | > 50 | > 50 | > 50 | > 50 | > 50 | > 50
22 | CCOC(=O)c1c(SCc2cc(=O)[nH]c(=O)[nH]2)n(-c2ccccc2)c(=S)n(-c2ccccc2)c1=O | > 100 | > 100 | > 100 | > 100 | > 100 | > 100 | > 100 | > 100 | > 100 | > 100 | > 100
23 | COC1(CC[C@H](C)COC2OC(CO)C(O)C(O)C2O)O[C@H]2C[C@H]3[C@@H]4CC=C5C[C@@H](OC6OC(CO)C(OC7OC(C)C(O)C(O)C7O)C(O)C6OC6OC(C)C(O)C(O)C6O)CC[C@]5(C)[C@H]4CC[C@]3(C)[C@H]2[C@@H]1C (stereo partly drawn) | 15.8 | 64.5 | 98.8 | 6.65 | 6.8 | > 28.6 | 10.1 | > 35.5 | > 100 | 13.1 | 17.6
